Reference: patent publication US20020045664A1, “Estrogen mimetics lacking reproductive tract effects” (The University of Georgia Research Foundation, Inc, priority 1999, published 2002)
Entries after “also recorded” stand apart in the source; their conditions may differ. Marks after values point to notes of the source that are not given here.

Experiments:
[1] = test system: rat uterus (uterine weight gain); design: Rat Uterotrophic Assay % Efficacy: concentration or dose not given beside the values; details: cited from earlier work; for Rat Uterotrophic Assay % Efficacy: in vivo; for Rat Uterotrophic Assay ED50: dose at which uterine weight gain was 50% maximal
[2] = test system: mouse uterus (uterine weight gain); details: dose at which uterine weight gain was 50% maximal; cited from earlier work
MCF-7 cells = details: cited from earlier work; for EC50: concentration at which growth stimulation was 50% maximal, read-out: MCF-7 Cell Growth EC50; for maximal growth-stimulatory effect, as a percent of that of estradiol: MCF-7 cell proliferation assay
OVX rat [3] = test: OVX rat: body weight and uterine wet weight; type: in vivo; details: for greater uterine weight compared to vehicle-treated OVX animals: 17β-estradiol: average of both experiments, 4HTA: vs respective OVX vehicle controls; for Uterine Weight, mean (SD) / Body Weight, mean (SD): OVX rats, 17β-estradiol 10 μg/kg/day; for Uterine Weight, mean (SD): s.c. 5 weeks; for Body Weight, mean (SD): s.c. 5 days/week for 5 weeks; for increase in overall body weight after ovariectomy: five-week course of the two studies, subcutaneous five days per week
Procedure: (§1) In the first experiment 50 female Sprague-Dawley rats that were approximately 90 days of age and weighed an average of 240 g at the beginning of the study were used. Animal care and handling was carried out solely at the AAALAC accredited animal facility at the University of Georgia College of Pharmacy, in accordance with a protocol approved by the University of Georgia Institutional Animal Care and Use Committee. On the day of surgery (day 0), all rats were anesthetized with an intraperitoneal (i.p.) injection of ketamine hydrochloride and xylazine at doses of 50 mg/kg body weight and 10 mg/kg body weight, respectively. Ten rats were sham-operated during which the ovaries were exteriorized but replaced intact. Bilateral ovariectomies were performed in the remaining 40 rats from a dorsal approach. Each rat was housed individually at 25° C. with a light/dark cycle of 13 hours/11 hours. Food (Teklad 22/5 Rodent Diet, Madison, Wis.), with calcium and phosphate contents of 0.95% and 0.67%, respectively, was available ad libitum to all animals.
(§2) Sham-operated rats (N=10) and one of the four groups of OVX rats (N=10) were injected subcutaneously (s.c.) with vehicle (5% benzyl alcohol in corn oil) 5 days per week for 5 weeks. […] The above treatments were initiated on the first day after surgery. The dose level of 17β-estradiol was believed to be optimal based on earlier studies (T. Wronski et al., Endocrinology 123:681-686 (1988)). […] Each rat was injected s.c. with demeclocycline and calcein (Sigma Chemical Co., St. Louis, Mo.) at a dose of 15 mg/kg body weight on the 10th and 3rd days before sacrifice, respectively, to label sites of bone formation.
(§3) A second experiment, using 40 animals, was performed in exactly the same manner described above, in which effects of the s.c. administration of 3.7 mg/kg/day of 4HTA to one group of OVX animals was compared to the effects of vehicle or 17β-estradiol in three other groups (vehicle treated sham OVX, vehicle treated OVX, and 17β-estradiol-treated OVX rats).
(§4) All rats were sacrificed by exsanguination from the abdominal aorta under ketamine/xylazine anesthesia. Failure to detect ovarian tissue and observation of marked atrophy of the uterine horns confirmed the success of ovariectomy. The body weight of each animal was recorded, as was uterine wet weight. Blood samples were allowed to coagulate at room temperature (2 hours) in a Vacutainer tube. Serum was obtained by centrifugation for 10 minutes at 3000 rpm, and samples were stored at −80° C. until analyzed. The right tibia was removed at necropsy, dissected free of muscle, and cut in half cross-sectionally with a hand-held saw (Dremel Moto Tool, Racine, Wis.). The bone samples were then placed in 10% phosphate-buffered formalin for 24 hours for tissue fixation.

OVX rat [4] = test: Serum rat osteocalcin radioimmunoassay in OVX rats; type: in vivo; details: for increase in serum OC: OVX animals, with respect to OVX vehicle controls; for Relative Serum OC Level, mean (SD): relative to OVX-17β-estradiol treated group (=100)
Procedure: as §1, §2, §3, §4
Materials, as well as standard protocols for their use, were obtained from Biomedical Technologies, Inc., Stoughton Mass. Serum samples from each member of the different treatment groups were diluted 1:20. Duplicate aliquots (100 μL) of each diluted sample were incubated in an orbital shaker at 80 rpm ([…]) for 16 hours with the first antibody and nonimmune serum in RIA buffer (final volume 0.5 mL). An aliquot of [^125I]-osteocalcin (10 nCi, 0.034 ng) in 100 μL of RIA buffer was then added to each tube and incubation was continued for 24 hours. Then the second (precipitating) antibody was added in 1 mL of modified buffer, and incubation was continued for 4 hours. Tubes were then centrifuged at 1500×g for 15 minutes. Pellets were washed with cold distilled water and recentrifuged as before. Supernatant was decanted and radioactivity in pellets was determined using a gamma counter. Serum osteocalcin levels were determined by comparing the sample values (cpm) to the linear region of a standard curve of cpm/pellet vs. the amount of osteocalcin present, obtained from incubations to which known amounts (0-0.35 ng) of osteocalcin had been added. […]

OVX rat [5] = test: Serum cholesterol in OVX rats; type: in vivo; details: for Serum Cholesterol, mean (SD): experiment 1
Procedure: as §1, §2
All rats were sacrificed by exsanguination from the abdominal aorta under ketamine/xylazine anesthesia. Failure to detect ovarian tissue and observation of marked atrophy of the uterine horns confirmed the success of ovariectomy. The body weight of each animal was recorded, as was uterine wet weight. […] Serum was obtained by centrifugation for 10 minutes at 3000 rpm, and samples were stored at −80° C. until analyzed. […]

OVX rat [6] = test: OVX rat: cortical bone histomorphometry, tibial diaphysis; type: in vivo; details: OVX rats
Procedure: In the first experiment 50 female Sprague-Dawley rats that were approximately 90 days of age and weighed an average of 240 g at the beginning of the study were used. Animal care and handling was carried out solely at the AAALAC accredited animal facility at the University of Georgia College of Pharmacy, in accordance with a protocol approved by the University of Georgia Institutional Animal Care and Use Committee. On the day of surgery (day 0), all rats were anesthetized with an intraperitoneal (i.p.) injection of ketamine hydrochloride and xylazine at doses of 50 mg/kg body weight and 10 mg/kg body weight, respectively. […]
Bone measurements were performed with the Bioquant Bone Morphometry System (R&M Biometrics Corp., Nashville, Tenn.). Cortical bone tissue area and bone marrow area were measured in one section per animal at a magnification of 20×. Cortical bone area was calculated by subtracting marrow area from cortical bone tissue area. Cortical width was measured from the periosteal to the endocortical surfaces at four equally spaced sites at the anterior (cranial), posterior (caudal), medial, and lateral aspects of each cross-section. […]
Fluorochrome-based indices of bone formation were measured under UV illumination at magnifications of 100× and 200× for mineralizing surface and mineral apposition rate, respectively. […]

OVX rat [7] = test: OVX rat: cancellous bone histomorphometry, proximal tibial metaphysis; type: in vivo; details: OVX rats; for osteoblast surface: 35 days after surgery; for Mineral apposition rate (MAR): 35 days postsurgery
Procedure: as §1, §2, §3
The proximal halves of the tibiae were dehydrated by immersion in ethanol, and embedded undecalcified in methyl methacrylate. Longitudinal sections (4- and 8-μm thick) were cut with AO Autocut/Jung 1150 or 2050 microtomes. The 4-μm thick sections were stained according to the Von Kossa method with a tetrachrome counterstain (Polysciences Inc., Warrington, Pa.). Bone measurements were performed in cancellous bone tissue of the proximal tibial metaphysis beginning at distances 1 mm distal to the growth plate-metaphyseal junction to exclude the primary spongiosa. In general, two sections of the proximal tibia, with a total of 40-50 mm of cancellous bone perimeter, were sampled in each animal with an appreciable amount of cancellous bone. Additional sections were sampled in osteopenic animals to approximate the cancellous bone perimeter sampled in animals with greater cancellous bone mass.
Bone measurements were performed with the Bioquant Bone Morphometry System (R&M Biometrics Corp., Nashville, Tenn.) as described in T. Wronski et al. (Calcif. Tissue Int. 53:210-216 (1993)). Cancellous bone volume as a percentage of bone tissue area and osteoblast and osteoclast surfaces as percentages of total cancellous perimeter were measured in 4-μm thick, stained sections.
Fluorochrome-based indices of bone formation were measured in unstained, 8-μm-thick sections of the proximal tibial metaphysis. The percentage of cancellous bone surface with a double fluorochrome label (mineralizing surface) and mineral apposition rate were measured with the Bioquant system. In addition, bone formation rate (tissue level, total surface referent) was calculated by multiplying mineralizing surface by mineral apposition rate (H. Frost, Bone histomorphometry: analysis of trabecular bone dynamics. In: Recker R. R., Ed. Bone Histomorphometry: Techniques and Interpretation. Boca Raton, Fla.: CRC Press; 1983; 109-132).

[8] = test system: MCF 7 human breast cancer cells; details: estradiol-stimulated MCF-7 proliferation; cited from earlier work
estrogen receptor = estrogen receptor (Homo sapiens, UniProt P03372); details: cited from earlier work
estrogen receptor, sequence (P03372 whole entry): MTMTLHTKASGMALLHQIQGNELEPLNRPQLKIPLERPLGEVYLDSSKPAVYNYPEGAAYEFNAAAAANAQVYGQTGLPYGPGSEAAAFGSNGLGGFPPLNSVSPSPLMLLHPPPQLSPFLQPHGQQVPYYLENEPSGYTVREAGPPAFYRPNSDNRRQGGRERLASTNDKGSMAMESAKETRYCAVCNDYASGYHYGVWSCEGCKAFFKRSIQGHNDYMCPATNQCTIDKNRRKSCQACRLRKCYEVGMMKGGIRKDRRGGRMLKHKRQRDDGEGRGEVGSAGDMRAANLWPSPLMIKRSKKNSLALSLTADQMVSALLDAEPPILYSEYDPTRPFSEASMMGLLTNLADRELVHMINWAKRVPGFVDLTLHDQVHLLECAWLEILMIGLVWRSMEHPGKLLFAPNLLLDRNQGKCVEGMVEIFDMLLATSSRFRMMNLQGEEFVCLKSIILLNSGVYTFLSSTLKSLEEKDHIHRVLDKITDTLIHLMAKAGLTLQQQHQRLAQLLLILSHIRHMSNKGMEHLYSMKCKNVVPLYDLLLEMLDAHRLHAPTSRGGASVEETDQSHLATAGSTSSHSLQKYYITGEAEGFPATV

OVX rat [9] = test: OVX rat: body weight and uterine wet weight; type: in vivo
[10] = experiment 1, HPPA 3.6 mg/kg/day
[11] = experiment 2, 4HTA 3.7 mg/kg/day

CC/C(=C(/CC)c1ccc(O)cc1)c1ccc(O)cc1 [diethylstilbestrol]
Rat Uterotrophic Assay % Efficacy [1]: 100%
Uterotrophic Assay ED50, determined in the mouse [2]: 3^c μg/day
MCF-7 Cell Growth % Efficacy (MCF-7 cells): 100%

C[C@]12CC[C@@H]3c4ccc(O)cc4CC[C@H]3[C@@H]1CC[C@@H]2O [17β-estradiol]
greater uterine weight compared to vehicle-treated OVX animals (OVX rat [3]): 167%
Uterine Weight, mean (SD) (OVX rat [3]; [10]): 269 (48)^b,c mg
Body Weight, mean (SD) (OVX rat [3]; [10]): 310 (24)^b g
Uterine Weight, mean (SD) (OVX rat [3]; [11]): 225 (30)^b,c mg
Body Weight, mean (SD) (OVX rat [3]; [11]): 303 (12)^b g
increase in overall body weight after ovariectomy (OVX rat [3]): not observed
increase in serum OC (OVX rat [4]): prevented this increase
Relative Serum OC Level, mean (SD) (OVX rat [4]; experiment 1): 100 (33)^b
Relative Serum OC Level, mean (SD) (OVX rat [4]; experiment 2): 100 (16)^b
Rat Uterotrophic Assay ED50 [1]: 0.16 µg/day
Rat Uterotrophic Assay % Efficacy [1]: 100%
MCF-7 Cell Growth % Efficacy (MCF-7 cells): 100%
EC50 (MCF-7 cells): 0.02 nM
Serum Cholesterol, mean (SD) (OVX rat [5]): 80 (3.5)^c mg/dL
periosteal bone formation rate (OVX rat [6]): inhibited periosteal bone formation rate to a level below that of vehicle-treated control rats
osteoblast surface (OVX rat [7]; experiment 1): suppressed at the control level
Mineral apposition rate (MAR) (OVX rat [7]; experiment 1): maintained at the control level
mineralizing surface (cancellous) (OVX rat [7]; experiment 1, vs vehicle-treated control rats): significantly lower
cancellous bone volume (OVX rat [7]; second experiment, mean ±SD): 24.0±5.5%

CCC(=C(c1ccc(O)cc1)c1ccc(OCC(=O)O)cc1)c1ccccc1 [4HTA, (E,Z)-2-{4-[1-(p-hydroxyphenyl)-2-phenyl]-1-butenyl}phenoxyacetic acid]
estrogen antagonist activity in growth inhibition assay in the presence of estrogen [8]: weak antagonist potency; also recorded: weakly inhibits
greater uterine weight compared to vehicle-treated OVX animals (OVX rat [3]): 25%
Body Weight, mean (SD) (OVX rat [3]; [11]): 305 (12)^b,c g
increase in overall body weight after ovariectomy (OVX rat [3]): not observed
increase in serum OC (OVX rat [4]): did not differ
Relative Serum OC Level, mean (SD) (OVX rat [4]; experiment 2): 188 (42)^c
maximal growth-stimulatory effect, as a percent of that of estradiol (MCF-7 cells): 79%
relative estrogen receptor binding affinity (RBA) (estrogen receptor): 20% of estradiol binding affinity

CC/C(=C(\c1ccccc1)c1ccc(OCCN(C)C)cc1)c1ccccc1 [trans-tamoxifen, (Z)-2-[4-(1,2-diphenyl-1-butenyl)phenoxy]-N,N-dimethylethanamine]
Rat Uterotrophic Assay ED50 [1]: 10 µg/day
Rat Uterotrophic Assay % Efficacy [1]: 12%
MCF-7 Cell Growth % Efficacy (MCF-7 cells): 21%

CC/C(=C(/c1ccccc1)c1ccc(OCCN(C)C)cc1)c1ccccc1 [cis-tamoxifen]
Rat Uterotrophic Assay ED50 [1]: 40 µg/day
Rat Uterotrophic Assay % Efficacy [1]: 52%
MCF-7 Cell Growth % Efficacy (MCF-7 cells): 100%

O=C(O)COc1ccc(C(Cc2ccccc2)c2ccc(O)cc2)cc1 (stereo not shown) [HPPA, 4-[1-(4-hydroxyphenyl)-2-phenylethyl]phenoxyacetic acid]
estrogen antagonist activity in growth inhibition assay in the presence of estrogen [8]: did not function as an estrogen antagonist; also recorded: no activity as an antiestrogen
greater uterine weight compared to vehicle-treated OVX animals (OVX rat [3]): did not differ appreciably
Body Weight, mean (SD) (OVX rat [3]; [10]): 342 (23)^b,c g
increase in overall body weight after ovariectomy (OVX rat [3]): not observed
Rat Uterotrophic Assay ED50 (HPPA, Ex. III) (OVX rat [9]; s.c.): >3400 µg/day
Emax (OVX rat [9]; sc, read-out: Rat Uterotrophic Assay % Efficacy (HPPA), s.c., Ex. III): 0%
increase in serum OC (OVX rat [4]): 34%
maximal growth-stimulatory effect, as a percent of that of estradiol (MCF-7 cells): 102%
MCF-7 Cell Growth % Efficacy (MCF-7 cells): 100%
EC50 (MCF-7 cells): 16 nM
reduction in serum cholesterol with respect to vehicle-treated OVX animals (OVX rat [5]; 10 μmol/kg sc): 10%
Serum Cholesterol, mean (SD) (OVX rat [5]): 72 (1.9)^b,c,d mg/dL
periosteal bone formation rate (OVX rat [6]): did not inhibit
osteoblast surface (OVX rat [7]; experiment 1): partially suppressed
Mineral apposition rate (MAR) (OVX rat [7]; experiment 1): no effect

COc1ccc(C(Cl)=C(c2ccc(OC)cc2)c2ccc(OC)cc2)cc1 [chlorotrianisene]
Rat Uterotrophic Assay % Efficacy [1]: 100%
Uterotrophic Assay ED50, determined in the mouse [2]: 40^c μg/day
MCF-7 Cell Growth % Efficacy (MCF-7 cells): 89%
EC50 (MCF-7 cells): 28 nM
